Source: patent US8329706B2, “Oxazolidinone derivatives” (Actelion Pharmaceuticals Ltd., priority 2009, dated 2012)
pIC50: −log10 of the molar value.

Assays:
[1] = tested on: rat; details: rat model; cited from earlier work
[2] = tested on: rat; details: cited from earlier work
[3] = tested on: rat; details: cited from earlier work; remark: listed apart in the source
[4] = biological target: T1, human orexin-1 receptor (Homo sapiens, UniProt O43613); test: FLIPR intracellular calcium assay, orexin receptor antagonistic activity (OX1); type: cell-based; details: CHO cells expressing human orexin-1 receptor; agonist 3 nM orexin-A; normalized to on-plate reference; * geomean n = 5, *2 geomean n = 2
T1 construct: expressed in transfected cells; host or cells: CHO cells (G418 selection)
T1 sequence (O43613 1-425): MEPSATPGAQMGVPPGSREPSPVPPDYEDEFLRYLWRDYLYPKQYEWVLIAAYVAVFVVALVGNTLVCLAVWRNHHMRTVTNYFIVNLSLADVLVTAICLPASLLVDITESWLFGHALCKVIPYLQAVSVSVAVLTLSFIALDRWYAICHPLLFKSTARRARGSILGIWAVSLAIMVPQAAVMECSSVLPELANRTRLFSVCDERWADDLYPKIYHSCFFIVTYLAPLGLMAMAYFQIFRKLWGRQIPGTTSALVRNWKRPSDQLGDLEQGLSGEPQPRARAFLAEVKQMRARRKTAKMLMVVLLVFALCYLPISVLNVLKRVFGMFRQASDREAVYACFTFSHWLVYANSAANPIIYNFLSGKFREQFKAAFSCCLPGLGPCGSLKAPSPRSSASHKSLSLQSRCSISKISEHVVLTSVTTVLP
Summary of the method: (§1)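 CHO cells expressing human OX1 or OX2 receptor loaded with fluo-4 AM, then antagonist preincubated 10 min before 3 nM orexin-A. FLIPR peak calcium fluorescence compared with agonist-plus-vehicle response. IC50 normalized to an on-plate reference compound.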

[5] = biological target: T2, human orexin-2 receptor (Homo sapiens, UniProt O43614); test: FLIPR intracellular calcium assay, orexin receptor antagonistic activity (OX2); type: cell-based; details: CHO cells expressing human orexin-2 receptor; agonist 3 nM orexin-A; normalized to on-plate reference; * geomean n = 5, *2 geomean n = 2
T2 construct: expressed in transfected cells; host or cells: CHO cells (G418 selection)
T2 sequence (O43614 1-444): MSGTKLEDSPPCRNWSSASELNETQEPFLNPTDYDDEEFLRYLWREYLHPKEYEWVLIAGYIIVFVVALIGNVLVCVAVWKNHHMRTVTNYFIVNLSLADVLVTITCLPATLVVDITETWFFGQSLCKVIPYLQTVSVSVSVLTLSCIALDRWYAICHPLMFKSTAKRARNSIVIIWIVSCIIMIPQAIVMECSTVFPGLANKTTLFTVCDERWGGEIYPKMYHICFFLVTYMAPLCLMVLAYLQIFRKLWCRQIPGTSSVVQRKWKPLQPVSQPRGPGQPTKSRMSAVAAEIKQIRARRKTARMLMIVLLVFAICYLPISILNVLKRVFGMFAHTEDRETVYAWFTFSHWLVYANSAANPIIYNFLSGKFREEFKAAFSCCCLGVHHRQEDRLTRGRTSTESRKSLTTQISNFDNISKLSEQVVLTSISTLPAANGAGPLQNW
Summary of the method: as §1

SMILES	memory function [1]	activity in model of post-traumatic stress disorder [2]	alertness (active wake and locomotion) [3]	time spent in REM and NREM sleep [3]	pIC50 [4]	pIC50 [5]
CNC(=O)[C@@H](c1ccccc1)N1CCc2cc(OC)c(OC)cc2[C@@H]1CCc1ccc(C(F)(F)F)cc1 [(2R)-2-{(1S)-6,7-dimethoxy-1-[2-(4-trifluoromethyl-phenyl)-ethyl]-3,4-dihydro-1H-isoquinolin-2-yl}-N-methyl-2-phenyl-acetamide]	enhance memory function	active	decrease alertness	dose-dependently increase the time spent in both REM and NREM sleep	–	–
COc1cccc(Cl)c1C1OC(C)(C)C(=O)N1Cc1ccc(Oc2ccccc2)cc1 (centres unmarked) [Example 85, 2-(2-Chloro-6-methoxy-phenyl)-5,5-dimethyl-3-(4-phenoxy-benzyl)-oxazolidin-4-one]	–	–	–	–	6.69	7.43
COc1cccc(C(F)(F)F)c1C1OC(C)(C)C(=O)N1Cc1ccc(Oc2ccccc2)cc1 (centres unmarked) [Example 86, 2-(2-Methoxy-6-trifluoromethyl-phenyl)-5,5-dimethyl-3-(4-phenoxy-benzyl)-oxazolidin-4-one]	–	–	–	–	5.66	7.19
COc1cccc(OC)c1C1OC(C)(C)C(=O)N1Cc1ccc(-c2ccccc2)cc1 (centres unmarked) [Example 87, 3-Biphenyl-4-ylmethyl-2-(2,6-dimethoxy-phenyl)-5,5-dimethyl-oxazolidin-4-one]	–	–	–	–	7.19	5.96
COc1cccc(OC)c1C1OC(C)(C)C(=O)N1Cc1ccc(SC(F)(F)F)cc1 (centres unmarked) [Example 88, 2-(2,6-Dimethoxy-phenyl)-5,5-dimethyl-3-(4-trifluoromethylsulfanyl-benzyl)-oxazolidin-4-one]	–	–	–	–	6.92	6.53
COc1cccc(OC)c1C1OC(C)(C)C(=O)N1Cc1ccc(Oc2ccccc2)nc1 (centres unmarked) [Example 89, 2-(2,6-Dimethoxy-phenyl)-5,5-dimethyl-3-(6-phenoxy-pyridin-3-ylmethyl)-oxazolidin-4-one]	–	–	–	–	6.86	6.67
COc1cccc(OC)c1C1OC(C)(C)C(=O)N1Cc1ccc(Oc2ccccc2)cn1 (centres unmarked) [Example 90, 2-(2,6-Dimethoxy-phenyl)-5,5-dimethyl-3-(5-phenoxy-pyridin-2-ylmethyl)-oxazolidin-4-one]	–	–	–	–	6.38	6.63
COc1cccc(OC)c1C1OC(C)(C)C(=O)N1Cc1ccc(Oc2ccccn2)cc1 (centres unmarked) [Example 91, 2-(2,6-Dimethoxy-phenyl)-5,5-dimethyl-3-[4-(pyridin-2-yloxy)-benzyl]-oxazolidin-4-one]	–	–	–	–	6.96	6.35
COc1cccc(OC)c1C1OC(C)(C)C(=O)N1Cc1ccc(Oc2cnccn2)cc1 (centres unmarked) [Example 92, 2-(2,6-Dimethoxy-phenyl)-5,5-dimethyl-3-[4-(pyrazin-2-yloxy)-benzyl]-oxazolidin-4-one]	–	–	–	–	5.92	5.51
COc1cccc(OC)c1C1OC(C)(C)C(=O)N1Cc1ccc(Oc2ccc(C)nn2)cc1 (centres unmarked) [Example 93, 2-(2,6-Dimethoxy-phenyl)-5,5-dimethyl-3-[4-(6-methyl-pyridazin-3-yloxy)-benzyl]-oxazolidin-4-one]	–	–	–	–	5.92	5.08
COc1cccc(OC)c1C1OC(C)(C)C(=O)N1Cc1ccc(Oc2ncccn2)cc1 (centres unmarked) [Example 95, 2-(2,6-Dimethoxy-phenyl)-5,5-dimethyl-3-[4-(pyrimidin-2-yloxy)-benzyl]-oxazolidin-4-one]	–	–	–	–	5.52	5.14
COc1cccc(OC(C)C)c1C1OC(C)(C)C(=O)N1Cc1ccc(Oc2ccccc2)cc1 (centres unmarked) [Example 96, 2-(2-Isopropoxy-6-methoxy-phenyl)-5,5-dimethyl-3-(4-phenoxy-benzyl)-oxazolidin-4-one]	–	–	–	–	8.00	6.92
CCOc1cccc(OC)c1C1OC(C)(C)C(=O)N1Cc1ccc(Oc2ccccc2)cc1 (centres unmarked) [Example 97, 2-(2-Ethoxy-6-methoxy-phenyl)-5,5-dimethyl-3-(4-phenoxy-benzyl)-oxazolidin-4-one]	–	–	–	–	7.60	7.21
COCCOc1cccc(OC)c1C1OC(C)(C)C(=O)N1Cc1ccc(Oc2ccccc2)cc1 (centres unmarked) [Example 98, 2-[2-Methoxy-6-(2-methoxy-ethoxy)-phenyl]-5,5-dimethyl-3-(4-phenoxy-benzyl)-oxazolidin-4-one]	–	–	–	–	6.46	6.44
COc1cccc(OCCCO)c1C1OC(C)(C)C(=O)N1Cc1ccc(Oc2ccccc2)cc1 (centres unmarked) [Example 99, 2-[2-(3-Hydroxy-propoxy)-6-methoxy-phenyl]-5,5-dimethyl-3-(4-phenoxy-benzyl)-oxazolidin-4-one]	–	–	–	–	7.10	6.82
